PubChem BioAssay (NCI)
“And” between values parts separate entries of the source, which are not always exact repeats. Identical values can stand only once.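 Growth conditions: 96-well plates. Treatment: test compound, 48 hours, 5 concentrations. Analysis: linear interpolation between bracketing concentrations; unreached endpoints set to highest concentration. At the GI50, growth is halved. At the TGI there is no net growth.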

How the values were obtained:
Assay in all cases: DTP human tumour cell line panel, 48 h
786-0 renal = system: 786-0 renal
A498 renal = system: A498 renal
A549 NSCLC = system: A549 NSCLC
ACHN renal = system: ACHN renal
CAKI-1 renal = system: CAKI-1 renal
COLO 205 colon = system: COLO 205 colon
DLD-1 colon = system: DLD-1 colon
DMS 114 small cell lung = system: DMS 114 small cell lung
DMS 273 small cell lung = system: DMS 273 small cell lung
EKVX NSCLC = system: EKVX NSCLC
HCC-2998 colon = system: HCC-2998 colon
HCT-116 colon = system: HCT-116 colon
HCT-15 colon = system: HCT-15 colon
HL-60(TB) leukemia = system: HL-60(TB) leukemia
HOP-62 NSCLC = system: HOP-62 NSCLC
HOP-92 NSCLC = system: HOP-92 NSCLC
HT29 colon = system: HT29 colon
IGROV1 ovarian = system: IGROV1 ovarian
K-562 leukemia = system: K-562 leukemia
KM12 colon = system: KM12 colon
KM20L2 colon = system: KM20L2 colon
LOX IMVI melanoma = system: LOX IMVI melanoma
LXFL 529 NSCLC = system: LXFL 529 NSCLC
M14 melanoma = system: M14 melanoma
M19-MEL melanoma = system: M19-MEL melanoma
MALME-3M melanoma = system: MALME-3M melanoma
MOLT-4 leukemia = system: MOLT-4 leukemia
NCI-H226 lung = system: NCI-H226 lung
NCI-H23 lung = system: NCI-H23 lung
NCI-H460 lung = system: NCI-H460 lung
NCI-H522 lung = system: NCI-H522 lung
OVCAR-3 ovarian = system: OVCAR-3 ovarian
OVCAR-4 ovarian = system: OVCAR-4 ovarian
OVCAR-5 ovarian = system: OVCAR-5 ovarian
OVCAR-8 ovarian = system: OVCAR-8 ovarian
RPMI-8226 leukemia = system: RPMI-8226 leukemia
RXF 393 renal = system: RXF 393 renal
SF-295 CNS = system: SF-295 CNS
SF-539 CNS = system: SF-539 CNS
SK-MEL-2 melanoma = system: SK-MEL-2 melanoma
SK-MEL-28 melanoma = system: SK-MEL-28 melanoma
SK-MEL-5 melanoma = system: SK-MEL-5 melanoma
SK-OV-3 ovarian = system: SK-OV-3 ovarian
SN12C renal = system: SN12C renal
SNB-19 CNS = system: SNB-19 CNS
SNB-75 CNS = system: SNB-75 CNS
SNB-78 CNS = system: SNB-78 CNS
SR leukemia = system: SR leukemia
SW-620 colon = system: SW-620 colon
TK-10 renal = system: TK-10 renal
U251 CNS = system: U251 CNS
UACC-257 melanoma = system: UACC-257 melanoma
UACC-62 melanoma = system: UACC-62 melanoma
UO-31 renal = system: UO-31 renal
XF 498 CNS = system: XF 498 CNS
BT-549 breast = system: BT-549 breast
CCRF-CEM leukemia = system: CCRF-CEM leukemia
DU-145 prostate = system: DU-145 prostate
HOP-18 NSCLC = system: HOP-18 NSCLC
HS 578T breast = system: HS 578T breast
MCF7 breast = system: MCF7 breast
MDA-MB-231 breast = system: MDA-MB-231 breast
MDA-MB-435 = system: MDA-MB-435
NCI/ADR-RES ovarian = system: NCI/ADR-RES ovarian
PC-3 prostate = system: PC-3 prostate
SF-268 CNS = system: SF-268 CNS
T-47D breast = system: T-47D breast

c1cncc(C2c3[nH]c4ccccc4c3CCN2CCCN2CCCCC2)c1 (stereo not given)
TGI (786-0 renal): > 100 µM | TGI (A498 renal): > 100 µM | TGI (A549 NSCLC): > 100 µM | TGI (ACHN renal): > 100 µM | TGI (CAKI-1 renal): > 100 µM | TGI (COLO 205 colon): > 100 µM | TGI (DLD-1 colon): > 100 µM | TGI (DMS 114 small cell lung): > 100 µM | TGI (DMS 273 small cell lung): > 100 µM | TGI (EKVX NSCLC): > 100 µM | TGI (HCC-2998 colon): > 100 µM | TGI (HCT-116 colon): > 100 µM | TGI (HCT-15 colon): > 100 µM | TGI (HL-60(TB) leukemia): > 100 µM | TGI (HOP-62 NSCLC): > 100 µM | TGI (HOP-92 NSCLC): > 100 µM | TGI (HT29 colon): > 100 µM | TGI (IGROV1 ovarian): > 100 µM | TGI (K-562 leukemia): > 100 µM | TGI (KM12 colon): > 100 µM | TGI (KM20L2 colon): > 100 µM | TGI (LOX IMVI melanoma): > 100 µM | TGI (LXFL 529 NSCLC): > 100 µM | TGI (M14 melanoma): 41.1 µM | TGI (M19-MEL melanoma): > 100 µM | TGI (MALME-3M melanoma): 92.5 µM | TGI (MOLT-4 leukemia): > 100 µM | TGI (NCI-H226 lung): > 100 µM | TGI (NCI-H23 lung): > 100 µM | TGI (NCI-H460 lung): > 100 µM | TGI (NCI-H522 lung): > 100 µM | TGI (OVCAR-3 ovarian): > 100 µM | TGI (OVCAR-4 ovarian): > 100 µM | TGI (OVCAR-5 ovarian): > 100 µM | TGI (OVCAR-8 ovarian): > 100 µM | TGI (RPMI-8226 leukemia): > 100 µM | TGI (RXF 393 renal): > 100 µM | TGI (SF-295 CNS): > 100 µM | TGI (SF-539 CNS): > 100 µM | TGI (SK-MEL-2 melanoma): > 100 µM | TGI (SK-MEL-28 melanoma): 47 µM | TGI (SK-MEL-5 melanoma): > 100 µM | TGI (SK-OV-3 ovarian): > 100 µM | TGI (SN12C renal): > 100 µM | TGI (SNB-19 CNS): > 100 µM | TGI (SNB-75 CNS): > 100 µM | TGI (SNB-78 CNS): > 100 µM | TGI (SR leukemia): > 100 µM | TGI (SW-620 colon): > 100 µM | TGI (TK-10 renal): > 100 µM | TGI (U251 CNS): > 100 µM | TGI (UACC-257 melanoma): > 100 µM | TGI (UACC-62 melanoma): > 100 µM | TGI (UO-31 renal): > 100 µM | TGI (XF 498 CNS): > 100 µM

NC1=NC(=O)N2CC12 (stereo not given)
GI50 (786-0 renal): 160 µM | TGI (786-0 renal): > 100 µM and 506 µM | GI50 (A498 renal): 228 µM | TGI (A498 renal): > 100 µM and 875 µM | GI50 (A549 NSCLC): 890 µM | TGI (A549 NSCLC): > 100 µM and 3450 µM | GI50 (ACHN renal): 347 µM | TGI (ACHN renal): > 100 µM and 1020 µM | GI50 (BT-549 breast): 47.9 µM and 62.6 µM | TGI (BT-549 breast): 166 µM | GI50 (CAKI-1 renal): 35.1 µM | TGI (CAKI-1 renal): > 100 µM and 118 µM | GI50 (CCRF-CEM leukemia): 17.3 µM and 14.3 µM | TGI (CCRF-CEM leukemia): > 100 µM and 58.9 µM and 89.8 µM | GI50 (COLO 205 colon): 278 µM | TGI (COLO 205 colon): > 100 µM and 929 µM | TGI (DLD-1 colon): > 100 µM | TGI (DMS 114 small cell lung): > 100 µM | TGI (DMS 273 small cell lung): > 100 µM | GI50 (DU-145 prostate): 240 µM | TGI (DU-145 prostate): 851 µM | GI50 (EKVX NSCLC): 123 µM | TGI (EKVX NSCLC): > 100 µM and 603 µM | GI50 (HCC-2998 colon): 520 µM | TGI (HCC-2998 colon): > 100 µM and 1250 µM | GI50 (HCT-116 colon): 73.9 µM | TGI (HCT-116 colon): 166 µM | GI50 (HCT-15 colon): 301 µM | TGI (HCT-15 colon): > 100 µM and 1140 µM | GI50 (HL-60(TB) leukemia): 13.7 µM | TGI (HOP-18 NSCLC): > 100 µM | GI50 (HOP-62 NSCLC): 570 µM | TGI (HOP-62 NSCLC): > 100 µM and 1250 µM | GI50 (HOP-92 NSCLC): 70.8 µM | TGI (HOP-92 NSCLC): > 100 µM and 173 µM | GI50 (HS 578T breast): 316 µM | TGI (HS 578T breast): 1720 µM | GI50 (HT29 colon): 400 µM | TGI (HT29 colon): > 100 µM and 3130 µM | GI50 (IGROV1 ovarian): 86.8 µM and 261 µM | TGI (IGROV1 ovarian): > 100 µM and 1100 µM | GI50 (K-562 leukemia): 38.9 µM | TGI (K-562 leukemia): > 100 µM | GI50 (KM12 colon): 436 µM | TGI (KM12 colon): > 100 µM and 1070 µM | TGI (KM20L2 colon): > 100 µM | GI50 (LOX IMVI melanoma): 38.2 µM and 61.2 µM | TGI (LOX IMVI melanoma): > 100 µM and 134 µM | TGI (LXFL 529 NSCLC): > 100 µM | TGI (M14 melanoma): > 100 µM and 273 µM | GI50 (MALME-3M melanoma): 57.8 µM and 79.7 µM | TGI (MALME-3M melanoma): > 100 µM and 202 µM | GI50 (MCF7 breast): 137 µM | TGI (MCF7 breast): 768 µM | GI50 (MDA-MB-231 breast): 107 µM | TGI (MDA-MB-231 breast): 244 µM | GI50 (MDA-MB-435): 90.9 µM and 78 µM | TGI (MDA-MB-435): 194 µM | GI50 (MOLT-4 leukemia): 53.3 µM | TGI (MOLT-4 leukemia): > 100 µM and 185 µM | GI50 (NCI-H226 lung): 184 µM | TGI (NCI-H226 lung): > 100 µM and 896 µM | GI50 (NCI-H23 lung): 737 µM | TGI (NCI-H23 lung): > 100 µM and 2640 µM | GI50 (NCI-H460 lung): 182 µM | TGI (NCI-H460 lung): > 100 µM and 866 µM | GI50 (NCI-H522 lung): 116 µM | TGI (NCI-H522 lung): > 100 µM and 367 µM | GI50 (NCI/ADR-RES ovarian): 168 µM | TGI (NCI/ADR-RES ovarian): 660 µM | GI50 (OVCAR-3 ovarian): 171 µM | TGI (OVCAR-3 ovarian): > 100 µM and 519 µM | GI50 (OVCAR-4 ovarian): 198 µM | TGI (OVCAR-4 ovarian): > 100 µM and 779 µM | GI50 (OVCAR-5 ovarian): 170 µM | TGI (OVCAR-5 ovarian): 528 µM | GI50 (OVCAR-8 ovarian): 141 µM | TGI (OVCAR-8 ovarian): > 100 µM and 5000 µM | GI50 (PC-3 prostate): 86.1 µM and 321 µM | TGI (PC-3 prostate): 1130 µM | TGI (RPMI-8226 leukemia): > 100 µM and 22 µM and 218 µM | TGI (RXF 393 renal): > 100 µM and 334 µM | TGI (SF-268 CNS): > 100 µM and 209 µM | GI50 (SF-295 CNS): 68.6 µM and 73.1 µM | TGI (SF-295 CNS): > 100 µM and 219 µM | TGI (SF-539 CNS): > 100 µM and 206 µM | GI50 (SK-MEL-2 melanoma): 63.3 µM | TGI (SK-MEL-2 melanoma): > 100 µM and 329 µM | TGI (SK-MEL-28 melanoma): > 100 µM and 196 µM | GI50 (SK-MEL-5 melanoma): 638 µM | TGI (SK-MEL-5 melanoma): > 100 µM and 1450 µM | GI50 (SK-OV-3 ovarian): 369 µM | TGI (SK-OV-3 ovarian): > 100 µM and 991 µM | TGI (SN12C renal): > 100 µM and 349 µM | GI50 (SNB-19 CNS): 516 µM | TGI (SNB-19 CNS): > 100 µM and 1120 µM | GI50 (SNB-75 CNS): 240 µM | TGI (SNB-75 CNS): > 100 µM and 822 µM | GI50 (SR leukemia): 10.8 µM and 14.6 µM | TGI (SR leukemia): > 100 µM and 34.8 µM and 73.9 µM | GI50 (SW-620 colon): 48.2 µM and 58.4 µM | TGI (SW-620 colon): > 100 µM and 143 µM | GI50 (T-47D breast): 26.7 µM and 54.5 µM | TGI (T-47D breast): 316 µM | GI50 (TK-10 renal): 65.1 µM and 144 µM | TGI (TK-10 renal): > 100 µM and 389 µM | GI50 (U251 CNS): 154 µM | TGI (U251 CNS): > 100 µM and 620 µM | GI50 (UACC-257 melanoma): 66.6 µM and 85 µM | TGI (UACC-257 melanoma): > 100 µM and 245 µM | GI50 (UACC-62 melanoma): 130 µM | TGI (UACC-62 melanoma): > 100 µM and 408 µM | GI50 (UO-31 renal): 163 µM | TGI (UO-31 renal): > 100 µM and 605 µM | TGI (XF 498 CNS): > 100 µM
